According to patent US12521399B2, “Compound as voltage-gated sodium channel inhibitor” (Guangzhou Fermion Technology Co., Ltd., priority 2022, dated 2026):

What was measured:
[1] = target: T1, human Nav1.8 ion channel stably expressed by CHO cells (Homo sapiens, UniProt Q9Y5Y9); assay: Blocking activity on sodium ion channel 1.8 (Nav1.8), manual whole-cell patch clamp; format: cell-based; settings: Nav1.8 peak sodium current; for inhibition at 0.01 µM: 10 nM compound, read-out: Inhibition rate (%) @ 10 nM; for inhibition at 0.1 µM: 100 nM compound, read-out: Inhibition rate (%) @ 100 nM
T1 construct: expressed in transfected cells
Protocol: Test Example A: Blocking activity of the compound of the present invention on sodium ion channel 1.8 (Nav1.8)
Experimental objective: to determine the rate of inhibition of the compound on the human Nav1.8 ion channel stably expressed by CHO cells
The compound was dissolved using DMSO to prepare a stock solution. The stock solution was diluted with an extracellular fluid (140 mM NaCl, 3.5 mM KCl, 1 mM MgCl2, 2 mM CaCl2), 10 mM D-glucose, 10 mM HEPES, 1.25 mM NaH2PO4 2H2O, pH=7.4 (NaOH)) to particular concentrations to be used in manual patch clamp testing.
A capillary glass tube was stretched to form a recording electrode using a microelectrode puller. A microelectrode manipulator was operated under an inverted microscope to contact the recording electrode to the cells, and negative suction pressure was applied to form a GQ seal. Once the GQ seal was formed, rapid capacitance compensation was performed, and then the negative pressure was continued to break the cell membrane, forming a whole cell recording mode. Slow capacitance was compensated for, and the film capacitance and series resistance were recorded. No leakage compensation was applied. Once the Nav1.8 current recorded in the whole cell was stabilized, administration of the compound was started. The compound was allowed to act at the first concentration for 5 min (or until the electric current stabilized), and then the second concentration was tested. For each test compound, two concentrations were tested.
The voltage stimulation protocol for whole-cell patch clamp recording of Nav1.8 sodium current was as follows: once the whole cell seal was formed, the cellular voltage was clamped at −120 mV for 30 ms. The clamping voltage was depolarized to 0 mV for 50 ms, and then the voltage was restored to −50 mV (for the specific voltage, reference was made to the half inactivation voltage in IV testing) for 8 s. […] Data acquisition was repeated every 20 s. The effect of the compound on the peak value of the sodium current was observed. The experimental data was collected by an EPC-10 amplifier (HEKA) and was stored in PatchMaster (HEKA) software.

[2] = Pharmacokinetic evaluation by intravenous injection or gavage in rats; settings: Sprague-Dawley (SD), rat, in vivo
Protocol: Test Example B: Quantitative pharmacokinetic evaluation of the compound of the present invention administered by intravenous injection or gavage in rats.
The present inventors conducted pharmacokinetic evaluation of the compound of the present invention in rats.
The compound of the present invention was administered to the test animals as a solution of 5% DMSO+5% tween 80+90% physiological saline solution. The animals were fasted for 12 hours prior to the administration, but had free access to water. For the intravenous injection administration group, the administration dose was 1 mg/kg; for gavage administration, the administration dose was 10 mg/kg. Following administration, blood was intravenously collected from the animals (approximately 0.3 mL of blood) at the following time points: 0.083 h, 0.25 h, 0.5 h, 1.0 h, 2.0 h, 4.0 h, 8.0 h, and 24 h. The blood collection tubes previously had EDTA-K2 added thereto as an anticoagulant. Each blood sample was centrifuged at 6800 g at a low temperature for 6 minutes, and plasma was collected and stored at −80° C.
Sample preparation for LC-MS/MS assay: 20 μL of the plasma sample was subjected to protein precipitation using 400 μL of methanol containing 100 ng/mL of IS (tolbutamide). The mixture was vortexed for 1 minute and then centrifuged at 18000 g for 7 minutes. 400 μL of the supernatant was transferred to a 96-well plate. 2 μL of the supernatant were subjected to LC-MS/MS analysis.

Nav1.3 = Nav1.3 (Homo sapiens, UniProt Q9NY46); settings: read-out: TTX IC50 (nm); cited from earlier work
Nav1.8 = Nav1.8 (Homo sapiens, UniProt Q9Y5Y9); settings: read-out: TTX IC50 (nm); cited from earlier work
Sequence of Nav1.8 (Q9Y5Y9 whole entry, looked up): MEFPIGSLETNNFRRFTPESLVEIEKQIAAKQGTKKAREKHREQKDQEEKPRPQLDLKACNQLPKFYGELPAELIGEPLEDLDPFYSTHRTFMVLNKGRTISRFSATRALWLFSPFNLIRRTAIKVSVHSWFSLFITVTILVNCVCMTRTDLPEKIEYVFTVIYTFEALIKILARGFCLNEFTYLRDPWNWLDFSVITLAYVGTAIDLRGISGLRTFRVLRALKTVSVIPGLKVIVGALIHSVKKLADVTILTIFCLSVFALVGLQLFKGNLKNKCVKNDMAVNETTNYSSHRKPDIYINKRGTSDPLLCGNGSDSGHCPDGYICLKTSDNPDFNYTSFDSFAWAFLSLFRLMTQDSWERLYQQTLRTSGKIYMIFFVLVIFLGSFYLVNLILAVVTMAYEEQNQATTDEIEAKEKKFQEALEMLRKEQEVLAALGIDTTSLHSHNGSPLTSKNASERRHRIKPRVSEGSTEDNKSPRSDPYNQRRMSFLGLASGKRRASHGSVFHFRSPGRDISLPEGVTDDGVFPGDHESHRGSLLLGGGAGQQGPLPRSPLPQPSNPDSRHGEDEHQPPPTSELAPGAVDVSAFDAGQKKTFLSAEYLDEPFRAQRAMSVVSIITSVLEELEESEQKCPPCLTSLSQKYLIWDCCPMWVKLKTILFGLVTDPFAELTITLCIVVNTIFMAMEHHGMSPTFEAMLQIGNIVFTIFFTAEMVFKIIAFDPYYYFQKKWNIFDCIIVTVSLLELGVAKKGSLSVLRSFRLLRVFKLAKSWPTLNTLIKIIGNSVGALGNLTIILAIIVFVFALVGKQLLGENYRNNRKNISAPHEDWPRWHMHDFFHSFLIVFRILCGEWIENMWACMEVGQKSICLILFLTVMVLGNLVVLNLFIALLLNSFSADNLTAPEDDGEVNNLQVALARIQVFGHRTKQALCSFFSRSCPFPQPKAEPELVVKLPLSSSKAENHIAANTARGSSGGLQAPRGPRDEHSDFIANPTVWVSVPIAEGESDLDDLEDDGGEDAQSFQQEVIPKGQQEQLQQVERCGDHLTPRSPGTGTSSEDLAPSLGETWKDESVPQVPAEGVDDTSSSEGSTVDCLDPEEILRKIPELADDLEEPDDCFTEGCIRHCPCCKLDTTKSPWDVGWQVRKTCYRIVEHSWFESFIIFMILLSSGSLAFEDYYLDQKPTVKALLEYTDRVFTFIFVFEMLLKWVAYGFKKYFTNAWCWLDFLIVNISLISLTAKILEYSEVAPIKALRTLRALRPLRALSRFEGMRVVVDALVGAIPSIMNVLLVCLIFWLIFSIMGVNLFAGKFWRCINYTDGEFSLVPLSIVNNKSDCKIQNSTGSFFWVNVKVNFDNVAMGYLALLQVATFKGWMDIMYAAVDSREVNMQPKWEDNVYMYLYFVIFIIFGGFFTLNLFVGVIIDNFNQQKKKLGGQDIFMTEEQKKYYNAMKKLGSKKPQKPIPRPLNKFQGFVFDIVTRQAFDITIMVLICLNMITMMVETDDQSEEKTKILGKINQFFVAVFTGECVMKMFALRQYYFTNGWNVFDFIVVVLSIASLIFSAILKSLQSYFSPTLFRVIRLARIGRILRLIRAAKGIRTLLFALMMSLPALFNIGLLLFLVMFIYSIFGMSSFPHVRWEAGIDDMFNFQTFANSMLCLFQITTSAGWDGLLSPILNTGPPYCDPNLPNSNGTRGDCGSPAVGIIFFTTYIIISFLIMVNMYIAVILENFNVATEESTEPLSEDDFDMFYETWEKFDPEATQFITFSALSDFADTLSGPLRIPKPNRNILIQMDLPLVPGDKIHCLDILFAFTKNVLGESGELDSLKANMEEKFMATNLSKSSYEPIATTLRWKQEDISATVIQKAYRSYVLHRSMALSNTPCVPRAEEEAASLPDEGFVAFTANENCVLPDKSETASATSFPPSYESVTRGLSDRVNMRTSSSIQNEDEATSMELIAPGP

T1 sequence (Q9Y5Y9 whole entry): as the sequence (Q9Y5Y9 whole entry, looked up) above
Sequence of Nav1.3 (Q9NY46 whole entry, looked up): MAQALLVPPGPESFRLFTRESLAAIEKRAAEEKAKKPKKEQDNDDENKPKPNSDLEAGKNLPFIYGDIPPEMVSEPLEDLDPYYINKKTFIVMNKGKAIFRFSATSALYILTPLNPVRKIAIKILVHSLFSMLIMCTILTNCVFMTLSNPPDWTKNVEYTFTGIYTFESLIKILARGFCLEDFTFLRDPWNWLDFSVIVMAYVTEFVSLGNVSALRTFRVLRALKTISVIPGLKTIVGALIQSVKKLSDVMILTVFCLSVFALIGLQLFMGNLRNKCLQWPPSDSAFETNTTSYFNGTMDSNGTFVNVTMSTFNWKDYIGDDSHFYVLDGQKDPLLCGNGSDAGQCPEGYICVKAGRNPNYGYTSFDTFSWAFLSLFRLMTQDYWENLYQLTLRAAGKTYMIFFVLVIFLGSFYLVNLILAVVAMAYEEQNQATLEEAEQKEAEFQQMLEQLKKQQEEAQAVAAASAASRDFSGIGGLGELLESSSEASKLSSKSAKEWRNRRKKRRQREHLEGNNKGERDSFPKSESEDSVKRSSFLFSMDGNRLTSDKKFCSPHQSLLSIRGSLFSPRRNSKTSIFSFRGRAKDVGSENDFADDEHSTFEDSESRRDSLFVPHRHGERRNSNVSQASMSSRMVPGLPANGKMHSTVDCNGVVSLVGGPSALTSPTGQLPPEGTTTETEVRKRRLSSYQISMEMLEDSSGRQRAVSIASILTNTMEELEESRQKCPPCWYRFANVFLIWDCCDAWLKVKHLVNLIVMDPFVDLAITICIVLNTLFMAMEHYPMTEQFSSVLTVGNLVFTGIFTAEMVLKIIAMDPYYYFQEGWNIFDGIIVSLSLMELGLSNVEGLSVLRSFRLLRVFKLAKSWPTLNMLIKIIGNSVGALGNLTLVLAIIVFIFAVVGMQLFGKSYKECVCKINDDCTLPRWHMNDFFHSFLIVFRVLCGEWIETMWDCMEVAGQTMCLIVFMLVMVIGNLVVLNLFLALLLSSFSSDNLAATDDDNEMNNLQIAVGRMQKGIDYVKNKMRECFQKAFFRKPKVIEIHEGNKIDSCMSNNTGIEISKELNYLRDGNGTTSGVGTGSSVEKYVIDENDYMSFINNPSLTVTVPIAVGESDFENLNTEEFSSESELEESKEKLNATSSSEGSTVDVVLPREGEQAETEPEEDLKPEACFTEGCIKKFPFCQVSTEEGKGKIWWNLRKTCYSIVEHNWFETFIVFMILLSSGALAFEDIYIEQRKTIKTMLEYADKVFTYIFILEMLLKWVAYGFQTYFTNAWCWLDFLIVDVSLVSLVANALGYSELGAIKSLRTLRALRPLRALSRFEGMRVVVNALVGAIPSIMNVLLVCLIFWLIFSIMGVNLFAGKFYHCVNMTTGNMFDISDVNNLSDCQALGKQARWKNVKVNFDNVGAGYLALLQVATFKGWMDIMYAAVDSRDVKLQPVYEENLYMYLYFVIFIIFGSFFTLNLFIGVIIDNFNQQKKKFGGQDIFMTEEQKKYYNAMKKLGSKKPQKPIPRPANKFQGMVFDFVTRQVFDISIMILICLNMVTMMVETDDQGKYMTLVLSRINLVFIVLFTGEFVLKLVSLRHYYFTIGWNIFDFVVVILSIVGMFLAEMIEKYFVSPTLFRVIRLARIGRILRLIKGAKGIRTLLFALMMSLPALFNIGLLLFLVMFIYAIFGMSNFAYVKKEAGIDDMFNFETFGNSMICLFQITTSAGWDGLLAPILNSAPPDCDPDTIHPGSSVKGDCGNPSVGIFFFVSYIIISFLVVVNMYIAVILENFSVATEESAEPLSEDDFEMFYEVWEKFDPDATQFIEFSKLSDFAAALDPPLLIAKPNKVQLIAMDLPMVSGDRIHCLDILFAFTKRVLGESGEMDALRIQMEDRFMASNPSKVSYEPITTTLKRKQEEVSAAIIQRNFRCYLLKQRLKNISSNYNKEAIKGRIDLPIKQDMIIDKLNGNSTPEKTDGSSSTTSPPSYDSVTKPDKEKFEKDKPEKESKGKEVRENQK

SMILES	inhibition at 0.01 µM [1]	inhibition at 0.1 µM [1]	further results
CNCCNS(=O)(=O)c1cc(NC(=O)c2cc(Cl)c(C(F)(F)F)cc2Oc2ccc(F)cc2C)ccn1 [Compound 1, 5-chloro-2-(4-fluoro-2-methylphenoxy)-N-(2-(N-(2-(methylamino)ethyl)sulfamoyl)pyridin-4-yl)-4-(trifluoromethyl)benzamide]	59.8%	91.3%	–
Cc1cc(F)ccc1Oc1cc(C(F)(F)F)c(Cl)cc1C(=O)Nc1ccnc(S(=O)(=O)N[C@@H]2CCNC2)c1 [Compound 2, (R)-5-chloro-2-(4-fluoro-2-methylphenoxy)-N-(2-(N-(pyrrolidin-3-yl)sulfamoyl)pyridin-4-yl)-4-(trifluoromethyl)benzamide]	84.5%	100%	–
Cc1cc(F)ccc1Oc1cc(C(F)(F)F)c(Cl)cc1C(=O)Nc1ccnc(S(=O)(=O)N[C@H]2CCNC2)c1 [Compound 3, (S)-5-chloro-2-(4-fluoro-2-methylphenoxy)-N-(2-(N-(pyrrolidin-3-yl)sulfamoyl)pyridin-4-yl)-4-(trifluoromethyl)benzamide]	92%	98.4%	–
Cc1cc(F)ccc1Oc1cc(C(F)(F)F)c(Cl)cc1C(=O)Nc1ccnc(S(=O)(=O)NC2CCNCC2)c1 [Compound 4, 5-chloro-2-(4-fluoro-2-methylphenoxy)-N-(2-(N-(piperidin-4-yl)sulfamoyl)pyridin-4-yl)-4-(trifluoromethyl)benzamide]	84.9%	96.1%	–
Cc1cc(F)ccc1Oc1cc(C(F)(F)F)c(Cl)cc1C(=O)Nc1ccnc(S(=O)(=O)NCC2CCNCC2)c1 [Compound 5, 5-chloro-2-(4-fluoro-2-methylphenoxy)-N-(2-(N-(piperidin-4-ylmethyl)sulfamoyl)pyridin-4-yl)-4-(trifluoromethyl)benzamide]	78.5%	96.8%	–
Cc1cc(F)ccc1Oc1cc(C(F)(F)F)c(Cl)cc1C(=O)Nc1ccnc(S(=O)(=O)NC[C@@H]2CCNC2)c1 [Compound 6, (R)-5-chloro-2-(4-fluoro-2-methylphenoxy)-N-(2-(N-(pyrrolidin-3-ylmethyl)sulfamoyl)pyridin-4-yl)-4-(trifluoromethyl)benzamide]	71.3%	98.1%	–
Cc1cc(F)ccc1Oc1cc(C(F)(F)F)c(Cl)cc1C(=O)Nc1ccnc(S(=O)(=O)NC[C@H]2CCNC2)c1 [Compound 7, (S)-5-chloro-2-(4-fluoro-2-methylphenoxy)-N-(2-(N-(pyrrolidin-3-ylmethyl)sulfamoyl)pyridin-4-yl)-4-(trifluoromethyl)benzamide]	91.5%	97.1%	–
CCN1CC[C@H](NS(=O)(=O)c2cc(NC(=O)c3cc(Cl)c(C(F)(F)F)cc3Oc3ccc(F)cc3C)ccn2)C1 [Compound 8]	68.6%	93%	–
CCCN1CC[C@H](NS(=O)(=O)c2cc(NC(=O)c3cc(Cl)c(C(F)(F)F)cc3Oc3ccc(F)cc3C)ccn2)C1 [Compound 9, (S)-5-chloro-2-(4-fluoro-2-methylphenoxy)-N-(2-(N-(1-propylpyrrolidin-3-yl)sulfonamido)pyridin-4-yl)-4-(trifluoromethyl)benzamide]	60.1%	95.2%	–
Cc1cc(F)ccc1Oc1cc(C(F)(F)F)c(Cl)cc1C(=O)Nc1ccnc(S(=O)(=O)N[C@H]2CCN(CCF)C2)c1 [Compound 10, (S)-5-chloro-2-(4-fluoro-2-methylphenoxy)-N-(2-(N-(1-(2-fluoroethyl)pyrrolidin-3-yl)sulfamoyl)pyridin-4-yl)-4-(trifluoromethyl)benzamide]	46.2%	83.4%	–
CCN1CC[C@@H](NS(=O)(=O)c2cc(NC(=O)c3cc(Cl)c(C(F)(F)F)cc3Oc3ccc(F)cc3C)ccn2)C1 [Compound 11]	80.5%	97.8%	–
CCCN1CC[C@@H](NS(=O)(=O)c2cc(NC(=O)c3cc(Cl)c(C(F)(F)F)cc3Oc3ccc(F)cc3C)ccn2)C1 [Compound 12, (R)-5-chloro-2-(4-fluoro-2-methylphenoxy)-N-(2-(N-(1-propylpyrrolidin-3-yl)sulfamoyl)pyridin-4-yl)-4-(trifluoromethyl)benzamide]	71.5%	97.9%	–
Cc1cc(F)ccc1Oc1cc(C(F)(F)F)c(Cl)cc1C(=O)Nc1ccnc(S(C)(=N)=O)c1 (stereo not drawn) [Compound 13, 5-chloro-2-(4-fluoro-2-methylphenoxy)-N-(2-(S-methyliminosulfonyl)pyridin-4-yl)-4-(trifluoromethyl)benzamide]	52.4%	97.2%	AUC(0-t) ([2]; iv, 1 mg/kg): 2240 ng·h/mL; Cmax ([2]; iv, 1 mg/kg): 496 ng/mL; Tmax ([2]; iv, 1 mg/kg): 0.08 h; Vd ([2]; iv, 1 mg/kg): 2.48 L/kg; clearance ([2]; iv, 1 mg/kg): 7.52 mL/min/kg; half-life ([2]; iv, 1 mg/kg): 3.88 h; AUC(0-t) ([2]; po, 10 mg/kg): 18600 ng·h/mL; Cmax ([2]; po, 10 mg/kg): 1840 ng/mL; Tmax ([2]; po, 10 mg/kg): 2.67 h; bioavailability ([2]; po, 10 mg/kg): 83.2%; half-life ([2]; po, 10 mg/kg): 3.85 h
[2H]C([2H])([2H])Oc1cc(OC(F)(F)F)ccc1Oc1cc(C(F)(F)F)c(Cl)cc1C(=O)Nc1ccnc(S(C)(=N)=O)c1 (stereo not drawn) [Compound 15, 5-chloro-2-(2-(methoxy-d3)-4-(trifluoromethoxy)phenoxy)-N-(2-(S-methyliminosulfonyl)pyridin-4-yl)-4-(trifluoromethyl)benzamide]	86.3%	99.3%	–
CS(=N)(=O)c1cc(NC(=O)c2cc(Cl)c(C(F)(F)F)cc2N2CCCC(F)(F)CC2)ccn1 (stereo not drawn) [Compound 17, 5-chloro-2-(4,4-difluoroazepan-1-yl)-N-(2-(S-methyliminosulfonyl)pyridin-4-yl)-4-(trifluoromethyl)benzamide]	71.9%	96.5%	–
Cc1cc(F)ccc1Oc1cc(C(F)(F)F)c(Cl)cc1C(=O)Nc1cnnc(S(C)(=N)=O)c1 (stereo not drawn) [Compound 20, 5-chloro-2-(4-fluoro-2-methylphenoxy)-N-(6-(S-methyliminosulfonyl) 76 yridazine-4-yl)-4-(trifluoromethyl)benzamide]	46.8%	86.5%	–
[2H]C([2H])([2H])Oc1cc(F)ccc1Oc1cc(C(F)(F)F)c(Cl)cc1C(=O)Nc1ccc(F)c(S(C)(=N)=O)c1 (stereo not drawn) [Compound 24, 5-chloro-2-(4-fluoro-2-(methoxy-d3)phenoxy)-N-(4-fluoro-3-(S-methyliminosulfonyl)phenyl)-4-(trifluoromethyl)benzamide]	83.9%	99%	–
[2H]C([2H])([2H])Oc1cc(OC(F)(F)F)ccc1Oc1cc(C(F)(F)F)c(Cl)cc1C(=O)Nc1ccc(F)c(S(C)(=N)=O)c1 (stereo not drawn) [Compound 25, 5-chloro-N-(4-fluoro-3-(S-methyliminosulfonyl)phenyl)-2-(2-(methoxy-d3)-4-(trifluoromethoxy)phenoxy)-4-(trifluoromethyl)benzamide]	82%	95.5%	–
CS(=N)(=O)c1cc(NC(=O)c2cc(Cl)c(C(F)(F)F)cc2N2CCCC(F)(F)CC2)ccc1F (stereo not drawn) [Compound 27, 5-chloro-2-(4,4-difluoroazepan-1-yl)-N-(4-fluoro-3-(S-methyliminosulfonyl)phenyl)-4-(trifluoromethyl)benzamide]	75.1%	96%	–
NC1=N[C@H](O)[C@H]2[C@H]3O[C@]4(O)O[C@@H]([C@@H](O)[C@@]2(N1)[C@@H]4O)[C@]3(O)CO [TTX, tetrodotoxin]	–	–	IC50 (Nav1.3): 0.004 µM; IC50 (Nav1.8): 31 µM
